Source: patent EP3748362A1, “IN VITRO METHOD FOR DETECTING RENAL DISEASE” (Fundacion Instituto De Investigacion Sanitaria Fundacion …, priority 2019, dated 2020)
Entries after “also recorded” stand apart in the source; their conditions may differ.

Columns and labels:
NF-κB1 = test: Canonical NF-κB1 activation in obstructed kidneys (UUO) in mice; type: in vivo; settings: paricalcitol-treated obstructed kidneys (UUO); 750 ng/kg/day
Experimental: (§1) All animal procedures were performed according to the guidelines of animal research in the European Community and with prior approval by the Ethics Committee of the Health Research of the IIS-Fundacion Jiménez Díaz. For in vivo studies, mice received a daily intraperitoneal injection of the VDRA Paricalcitol starting 48 hours prior to induction of kidney damage.
(§2) At the time of sacrifice, animals were anesthetized with 5 mg/kg xylazine (Rompun, Bayer AG) and 35 mg/kg ketamine (Ketolar, Pfizer) and the kidneys perfused in situ with cold saline before removal. Then, kidney portions were fixed in formalin buffer for immunohistochemistry studies or immediately frozen in liquid nitrogen for gene and protein studies.
Unilateral ureteral obstruction (UUO) was established in male C57BL/6 mice, under isoflurane-induced anesthesia. […]
(§3) For western blot, cell (25 µg/lane) and kidney (100-150 µg/lane) protein extracts were separated on 6%-12% polyacrylamide-SDS gels under reducing conditions. […] Autoradiographs were scanned using the Gel Doc™ EZ imager and analyzed with the Image Lab 3.0 software (BioRad).

NF-κB2 [1] = test: Non-canonical NF-κB2 activation in TWEAK-stimulated PBMCs from healthy donors; type: cell-based, Human; settings: 12 µM paricalcitol 24 hours, TWEAK 100 ng/ml, p52 levels
[2] = system: renal inflammation induced by folic acid; test: Renal inflammatory cell infiltration, folic acid-induced renal injury in mice; type: in vivo; settings: folic acid 300 mg/kg model; paricalcitol 25 µg/kg/day i.p.; anti-F4/80 and anti-CD3 immunohistochemistry
Experimental: as §1, §2
Folic acid nephropathy is a classical model of kidney tubulointerstitial injury and inflammation that has been reported in humans. Mice received a single intraperitoneal injection of folic acid (Sigma) 300 mg/kg in 0.3 mol/l sodium bicarbonate or vehicle, and were sacrificed 48 hours later. […]
(§4) Paraffin-embedded kidney sections (3 µm) were stained using conventional methods. […] For each sample (processed by duplicate in a blinded manner), the average value was obtained from the analysis of 4 fields (20X objective) as density/mm2 or percentage stained area vs total analyzed area. Data are expressed as fold increase over control mice, as mean ± SEM of 8-10 animals per group. […]

NF-κB2 [3] = test: Non-canonical NF-κB2 activation and dependent cytokines, folic acid-induced renal injury in mice; type: in vivo; settings: folic acid 300 mg/kg model; paricalcitol 25 µg/kg/day i.p.
Experimental: as §1
At the time of sacrifice, animals were anesthetized with 5 mg/kg xylazine (Rompun, Bayer AG) and 35 mg/kg ketamine (Ketolar, Pfizer) and the kidneys perfused in situ with cold saline before removal. Then, kidney portions were fixed in formalin buffer for immunohistochemistry studies or immediately frozen in liquid nitrogen for gene and protein studies. […]
as §4
For western blot, cell (25 µg/lane) and kidney (100-150 µg/lane) protein extracts were separated on 6%-12% polyacrylamide-SDS gels under reducing conditions. […] Autoradiographs were scanned using the Gel Doc™ EZ imager and analyzed with the Image Lab 3.0 software (BioRad). […]

NF-κB2 [4] = test: Non-canonical NF-κB2 activation (western blot) in TWEAK-stimulated HK2 cells; type: cell-based, Human; settings: 12 µM paricalcitol for 48 hours, TWEAK 100 ng/ml 6 hours
Experimental: Human kidney proximal tubule epithelial cells (HK2 cell line, ATCC CRL-2190) were grown in RPMI 1640 with 10% fetal bovine serum (FBS), 1% glutamine, 100 U/ml penicillin, 100 µg/ml streptomycin, 5 µg/ml insulin-transferrin-selenite and 36 ng/ml hydrocortisone in 5% CO2 at 37° C. When cells reached 60 to 70% confluence, they were serum-depleted for 24 hours before the experiment.
Cells were stimulated with 100ng/ml recombinant human soluble TWEAK (Millipore) or p-200 µg/ml cresyl-sulfate (Raymond Vanholder and Griet Glorieux, University of Gent, Belgium). Concentrations of TWEAK and p-cresyl-sulfate were based on previously published dose-response experiments (Poveda et al. 2014; Sanz et al. 2008). In some experiments cells were preincubated for 48 hours with the paricalcitol 12 µmol/L (Abbott) prior to stimulation. DMSO, used as a solvent in some cases, had no effect on cell viability or on gene expression levels.
as §3

C[C@H](/C=C/[C@H](C)C(C)(C)O)[C@H]1CC[C@H]2/C(=C/C=C3C[C@@H](O)C[C@H](O)C3)CCC[C@]12C [paricalcitol]
NF-κB1 activation, evaluated by IκB-α phosphorylation and p65/NF-κB DNA binding activity (NF-κB1): not modified
TWEAK-induced NF-κB2 activation (NF-κB2 [1]): inhibited
renal inflammatory cell infiltration [2]: prevented
NF-κB2 activation, as determined by RelB and p52 levels, nuclear translocation and RelB DNA-binding activity (NF-κB2 [3]): decreased; also recorded: blocked
gene and protein expression of NF-κB2-dependent cytokines, such as CCL21A, as well as other pro-inflammatory factors (NF-κB2 [3]): blocked
TWEAK-induced IKK-α phosphorylation, the increase in NIK, and p52 and RelB nuclear levels (NF-κB2 [4]): inhibited
